From ChEMBL document CHEMBL1201862, “PubChem BioAssay data set” (2004) come the findings set out here.

Some test systems named below: OVCAR-5; U-251; CCRF-CEM; HT-29; NCI-H23; HOP-92; HL-60; OVCAR-8; NCI-H226; A498; SNB-19; HCC 2998; COLO 205; ACHN; UACC-257; SW-620; SK-MEL-2; NCI-H460; NCI/ADR-RES.
Assay in all cases: NCI tumour cell line growth inhibition, 48 h

SMILES strings stand for the structures.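 Interpolation was linear, between the two tested concentrations surrounding the appropriate level; five concentrations were tested over 48 hours in 96-well plates. GI50: concentration for 50% inhibition of growth.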 Active and inactive are the calls of the source. Cut-off read from the data, not from the text of the source: active = GI50 up to about 1.1 µM and inactive = higher.

Regarding `CC1=C(C(=O)NCc2ccccc2)C(c2ccco2)C(C(=O)NCc2ccccc2)=C(C)N1`, the GI50 is > 100 µM (inactive) in the test with OVCAR-5; > 100 µM (inactive) with U-251; 45.8 µM (inactive) in the test with CCRF-CEM; 53.8 µM (inactive) in the test on HT-29; > 100 µM (inactive) in the test with NCI-H23; 92.9 µM (inactive) in the test on HOP-92. Besides, the GI50 in the test with HL-60 is 17.8 µM (inactive); in the test on OVCAR-8 it was 78.5 µM (inactive); in the test with NCI-H226 it was > 100 µM (inactive); in the test with A498, > 100 µM (inactive); in the test with SNB-19, > 100 µM (inactive); in the test on HCC 2998, 47 µM (inactive). Also, the GI50 in the test with COLO 205 is > 100 µM (inactive); in the test with ACHN, 31.5 µM (inactive); in the test on UACC-257, > 100 µM (inactive); in the test with SW-620 it was 50.9 µM (inactive); in the test on SK-MEL-2, 27.6 µM (inactive); with NCI-H460 it was > 100 µM (inactive).
For `COc1ccc(C(=O)C(C(=O)C(=O)NC2C3CC4CC(C3)CC2C4)c2ccc(OC)cc2)cc1` (stereo not given), the GI50 in the test on OVCAR-5, in the test on U-251, in the test with CCRF-CEM, with HT-29, in the test on NCI-H23 and in the test on HOP-92 was > 100 µM (inactive) in each case. For the same compound, the GI50 with HL-60, in the test with OVCAR-8, in the test with NCI-H226, with A498, with SNB-19 and in the test with HCC 2998 was > 100 µM (inactive) in each case. In addition, the GI50 in the test on COLO 205, with ACHN, in the test with UACC-257, in the test with SW-620, with SK-MEL-2 and in the test with NCI-H460 was > 100 µM (inactive) each time.
As for `Cc1cc(N(CCC#N)CCC#N)ccc1/C=C(\NC(=O)/C=C/c1ccccc1)C(=O)Nc1ccccc1Cl`, the GI50 is > 100 µM (inactive) in the test with OVCAR-5; 59.6 µM (inactive) in the test on U-251; > 100 µM (inactive) with CCRF-CEM; > 100 µM (inactive) with HT-29; > 100 µM (inactive) with NCI-H23; 29.2 µM (inactive) in the test with HOP-92. For the same compound, the GI50 with HL-60, with OVCAR-8, with NCI-H226, in the test with A498, with SNB-19 and in the test on HCC 2998 was > 100 µM (inactive) each time. The GI50 in the test with COLO 205, in the test on ACHN, with UACC-257, with SW-620, with SK-MEL-2 and in the test with NCI-H460 was > 100 µM (inactive) in each case.
With `C/C=C(\C)C(=O)OC1C2C(C)=CC(=O)C(O)C2(C)C2C3(O)OCC24C1OC(=O)C(OC(C)=O)C4C(C)C3O` (stereo not given), the GI50 in the test with OVCAR-5 is 0.111 µM (active); in the test with NCI/ADR-RES, 1.05 µM (active); with U-251, 0.0375 µM (active); with CCRF-CEM, 0.0375 µM (active); in the test on HT-29, 0.0385 µM (active); in the test on NCI-H23, 0.043 µM (active). The GI50 is 0.0388 µM (active) in the test with HOP-92; 0.0375 µM (active) with HL-60; 0.0396 µM (active) in the test on OVCAR-8; 0.0375 µM (active) in the test with NCI-H226; 0.0611 µM (active) in the test with A498; 0.0415 µM (active) in the test with HCC 2998. Besides, the GI50 with COLO 205 was 0.0719 µM (active); in the test on UACC-257, 0.0375 µM (active); in the test with SW-620, 0.0594 µM (active); in the test on SK-MEL-2, 0.0377 µM (active); with NCI-H460 it was 0.0375 µM (active).
On to `Clc1ccccc1C(n1ncc2ccccc21)n1ncc2ccccc21`, for which the GI50 in the test on OVCAR-5 is 37.7 µM (inactive); with U-251, 35.8 µM (inactive); with CCRF-CEM it was 28.5 µM (inactive); in the test on HT-29 it was 35.9 µM (inactive); with NCI-H23 it was 24 µM (inactive); in the test with HOP-92, 24.3 µM (inactive). Besides, the GI50 was 18.6 µM (inactive) with HL-60; > 100 µM (inactive) in the test with OVCAR-8; 33.7 µM (inactive) with NCI-H226; 35.6 µM (inactive) in the test on A498; 57.5 µM (inactive) in the test with SNB-19; 31.5 µM (inactive) in the test on HCC 2998. Further, the GI50 in the test on ACHN is 56.5 µM (inactive); in the test on UACC-257, 40.8 µM (inactive); in the test on SW-620 it was 29.7 µM (inactive); with SK-MEL-2 it was 33.3 µM (inactive); with NCI-H460, 35.8 µM (inactive).
As to `CC1(C)N=C(N)N=C(N)N1c1ccc(CCc2ccccc2)cc1`, the GI50 is 1.92 µM (inactive) in the test on OVCAR-5; > 100 µM (inactive) in the test on NCI/ADR-RES; 0.435 µM (active) in the test with U-251; 1.91 µM (inactive) in the test with CCRF-CEM; 0.565 µM (active) in the test on HT-29; 1.43 µM (inactive) in the test with NCI-H23. In addition, the GI50 is 22.1 µM (inactive) in the test with HOP-92; 13.3 µM (inactive) in the test with HL-60; 2.53 µM (inactive) with OVCAR-8; 14.2 µM (inactive) with NCI-H226; 1.14 µM (inactive) in the test on SNB-19; 2.14 µM (inactive) in the test with HCC 2998. The GI50 in the test with COLO 205 is 1.36 µM (inactive); with UACC-257 it was 2.96 µM (inactive); with SW-620, 0.301 µM (active); with SK-MEL-2, 8.85 µM (inactive); in the test on NCI-H460, 0.508 µM (active).
Take `O=C(CC1Sc2ccccc2NC1=O)Nc1ccc(Cl)cc1` (stereo not given): the GI50 in the test on OVCAR-5 was > 100 µM (inactive); in the test with U-251 it was > 100 µM (inactive); in the test on CCRF-CEM, > 100 µM (inactive); in the test with HT-29 it was > 100 µM (inactive); with NCI-H23, 46.2 µM (inactive); in the test on HOP-92 it was 19.6 µM (inactive). Also, the GI50 with HL-60 is > 100 µM (inactive); with OVCAR-8 it was 37.9 µM (inactive); with NCI-H226 it was > 100 µM (inactive); in the test on A498, > 100 µM (inactive); in the test with SNB-19, > 100 µM (inactive); in the test on HCC 2998 it was 72.1 µM (inactive). In addition, the GI50 with COLO 205 was > 100 µM (inactive); with ACHN, 26.5 µM (inactive); with UACC-257, > 100 µM (inactive); in the test with SW-620 it was > 100 µM (inactive); in the test with SK-MEL-2 it was > 100 µM (inactive); in the test on NCI-H460, > 100 µM (inactive).
With `CC(C)CCCC(C)[C@H]1CCC(C2C[C@@H](O)[C@@H]3CC(O)[C@@H](O)C[C@]3(CO)C2=O)[C@]1(C)CCO` (stereo not given in full), the GI50 was 23.2 µM (inactive) in the test on OVCAR-5; 37.6 µM (inactive) in the test with NCI/ADR-RES; 19.4 µM (inactive) in the test on U-251; 17 µM (inactive) in the test on CCRF-CEM; 19.5 µM (inactive) with HT-29; 36.1 µM (inactive) in the test with NCI-H23. The GI50 in the test on HL-60 is 16.1 µM (inactive); in the test with OVCAR-8, > 50.1 µM (inactive); with NCI-H226 it was 30.7 µM (inactive); in the test on A498 it was 25.6 µM (inactive); in the test with SNB-19, 28.4 µM (inactive); in the test on HCC 2998, 21.2 µM (inactive). Further, the GI50 with COLO 205 is 20 µM (inactive); with UACC-257 it was 20 µM (inactive); in the test with SW-620 it was 23.4 µM (inactive); in the test on SK-MEL-2, 22.3 µM (inactive); in the test with NCI-H460, 21.8 µM (inactive).
